A word on the Ki: it is the dissociation constant of the complex between target and ligand, obtained from inhibition or displacement.

The structures appear in SMILES notation.

Chain of Pim-1 (P11309 whole entry): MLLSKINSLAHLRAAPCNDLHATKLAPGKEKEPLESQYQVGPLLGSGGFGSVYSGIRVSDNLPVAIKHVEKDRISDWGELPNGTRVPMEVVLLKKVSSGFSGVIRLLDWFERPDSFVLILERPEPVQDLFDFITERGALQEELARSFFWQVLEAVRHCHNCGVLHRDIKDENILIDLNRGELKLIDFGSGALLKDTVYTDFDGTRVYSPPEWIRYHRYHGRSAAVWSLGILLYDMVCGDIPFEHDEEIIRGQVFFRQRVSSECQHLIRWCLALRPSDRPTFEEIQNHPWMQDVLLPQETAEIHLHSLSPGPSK

The assay concerns the target Pim-1 (Homo sapiens (Human), UniProt P11309). The experiment in a line: Pim kinase binding activity assay (Example 901), PIM-1 enzyme, Caliper microfluidic peptide phosphorylation. Type of assay: biochemical. The conditions noted are these: 20 pM PIM-1, 10 μM ATP, 1 μM FAM-peptide, 90 minutes at room temperature. The protocol:
Pim Kinase Binding Activity
A fluorescent-labeled Pim-specific peptide substrate, was custom synthesized by American Peptide Company (Sunnyvale, Calif.). Reaction Buffer contained 10 mM HEPES, pH 7.2, 10 mM MgCl2, 0.01% Tween 20, 2 mM DTT. Termination Buffer contained 190 mM HEPES, pH 7.2, 0.015% Brij-35, 0.2% Coating Reagent 3 (Caliper Life Sciences, Hopkinton, Mass.), 20 mM EDTA. Separation Buffer contained 100 mM HEPES, pH 7.2, 0.015% Brij-35, 0.1% Coating Reagent 3, 1:200 Coating Reagent 8 (Caliper Life Sciences, Hopkinton, Mass.), 10 mM EDTA and 5% DMSO.
PIM reactions were carried out in a final volume of 10 μL per well in a 384-well plate. A standard enzymatic reaction, initiated by the addition of 5 μL 2×ATP and test compound to 5 μL of 2× enzyme and FAM-peptide, contained 20 pM PIM-1, 50 pM PIM-2, or 55 pM PIM-3, 1 μM FAM-peptide, and 10 μM ATP, in Reaction Buffer. After 90 minutes of incubation at room temperature, the phosphorylation reaction was stopped by the addition of 10 μL Termination Buffer. The product and substrate in each independent reaction were separated on a 12-sipper microfluidic chip (Caliper Life Sciences, Hopkinton, Mass.) run on a Caliper LC3000® (Caliper Life Sciences, Hopkinton, Mass.). The separation of product and substrate was optimized by choosing voltages and pressure using Caliper's Optimizer software (Hopkinton, Mass.). […] The product and substrate fluorophore were excited at 488 nm and detected at 530 nm. Substrate conversion was calculated from the electropherogram using HTS Well Analyzer software (Caliper Life Sciences, Hopkinton, Mass.). Ki values for the test compound were calculated.
Take `N[C@@H]1CN(c2cccc(-c3n[nH]c4cnc(-c5cccnc5)cc34)n2)CC[C@@H]1F` (relative stereo) [Example 452, cis-4-fluoro-1-(6-(5-(pyridin-3-yl)-1H-pyrazolo[3,4-c]pyridin-3-yl)pyridin-2-yl)piperidin-3-amine]: the inhibition constant (Ki) was 0.046 nM.

The molecule `N[C@@H]1CN(c2cccc(-c3n[nH]c4cnc(-c5cccnc5)cc34)n2)CC[C@H]1F` (relative stereo) [Example 453, trans-4-fluoro-1-(6-(5-(pyridin-3-yl)-1H-pyrazolo[3,4-c]pyridin-3-yl)pyridin-2-yl)piperidin-3-amine] had a Ki of 0.296 nM.

The molecule `CCn1cc(-c2cc3c(-c4cccc(N5CC[C@@H](F)[C@H](N)C5)n4)n[nH]c3cn2)cn1` (relative stereo) [Example 462, trans-1-(6-(5-(1-ethyl-1H-pyrazol-4-yl)-1H-pyrazolo[3,4-c]pyridin-3-yl)pyridin-2-yl)-4-fluoropiperidin-3-amine] had a Ki of 0.55 nM.

For `CCn1cc(-c2cc3c(-c4cccc(N5CC[C@H](F)[C@H](N)C5)n4)n[nH]c3cn2)cn1` (relative stereo) [Example 465, cis-1-(6-(5-(1-ethyl-1H-pyrazol-4-yl)-1H-pyrazolo[3,4-c]pyridin-3-yl)pyridin-2-yl)-4-fluoropiperidin-3-amine], the affinity, expressed as Ki, was 0.063 nM.

`N[C@H]1CCCC(Nc2cccc(-c3n[nH]c4cnc(-c5cccnc5)cc34)n2)C1` (stereo in doubt) [Example 245, (1S,3S)—N1-(6-(5-(pyridin-3-yl)-1H-pyrazolo[3,4-c]pyridin-3-yl)pyridin-2-yl)cyclohexane-1,3-diamine] showed a Ki of 0.0079 nM.

`Cc1n[nH]c2cnc(-c3cccnc3)cc12` [Example 101, 3-methyl-5-(pyridin-3-yl)-1H-pyrazolo[3,4-c]pyridine] yielded a Ki of 190 nM.

The molecule `Cc1n[nH]c2cnc(-c3cn[nH]c3)cc12` [Example 102, 3-methyl-5-(1H-pyrazol-4-yl)-1H-pyrazolo[3,4-c]pyridine] gave a Ki of 302 nM.

Regarding `Cc1n[nH]c2cnc(-c3ccn[nH]3)cc12` [Example 103, 3-methyl-5-(1H-pyrazol-5-yl)-1H-pyrazolo[3,4-c]pyridine], the affinity corresponds to a Ki of 1300 nM.

With `N[C@H]1CCCN(Cc2n[nH]c3cnc(-c4cccnc4)cc23)C1` [Example 104, (S)-1-((5-(pyridin-3-yl)-1H-pyrazolo[3,4-c]pyridin-3-yl)methyl)piperidin-3-amine], the affinity, expressed as Ki, was 3000 nM.

The molecule `N[C@@H]1CCCN(Cc2n[nH]c3cnc(-c4cccnc4)cc23)C1` [Example 105, (R)-1-((5-(pyridin-3-yl)-1H-pyrazolo[3,4-c]pyridin-3-yl)methyl)piperidin-3-amine] yielded a Ki of 3400 nM.

In turn, `NC1CCN(Cc2n[nH]c3cnc(-c4cccnc4)cc23)CC1` [Example 106, 1-((5-(pyridin-3-yl)-1H-pyrazolo[3,4-c]pyridin-3-yl)methyl)piperidin-4-amine] had an inhibition constant (Ki) of 1400 nM.

Turning to `N[C@H]1CCCN(Cc2n[nH]c3cnc(-c4cn[nH]c4)cc23)C1` [Example 107, (S)-1-((5-(1H-pyrazol-4-yl)-1H-pyrazolo[3,4-c]pyridin-3-yl)methyl)piperidin-3-amine], the inhibition constant (Ki) is 3000 nM.

On to `NC1CCN(Cc2n[nH]c3cnc(-c4cn[nH]c4)cc23)CC1` [Example 108, l-((5-(1H-pyrazol-4-yl)-1H-pyrazolo[3,4-c]pyridin-3-yl)methyl)piperidin-4-amine], for which the Ki is 1100 nM.

Regarding `c1cncc(-c2cc3c(CNC4CCNCC4)n[nH]c3cn2)c1` [Example 109, N-((5-(pyridin-3-yl)-1H-pyrazolo[3,4-c]pyridin-3-yl)methyl)piperidin-4-amine], the Ki was 3800 nM.

In turn, `Cc1n[nH]c2cnc(-c3cncc(N4CCC(N)CC4)n3)cc12` [Example 110, 1-(6-(3-methyl-1H-pyrazolo[3,4-c]pyridin-5-yl)pyrazin-2-yl)piperidin-4-amine] showed an inhibition constant Ki of 5.8 nM.

As to `N[C@H]1CCCN(Cc2n[nH]c3cnc(-c4cn[nH]c4)cc23)C1` [Example 111, (S)-1-((5-(1H-pyrazol-4-yl)-1H-pyrazolo[3,4-c]pyridin-3-yl)methyl)piperidin-3-amine], the affinity corresponds to a Ki of 4000 nM.

`Cc1n[nH]c2cnc(-c3cnccc3N3CCC[C@H](N)C3)cc12` [Example 112, (S)-1-(3-(3-methyl-1H-pyrazolo[3,4-c]pyridin-5-yl)pyridin-4-yl)piperidin-3-amine]: the affinity corresponds to a Ki of 3500 nM.

On to `c1cncc(-c2cc3c(CNCC4CCNCC4)n[nH]c3cn2)c1` [Example 113, 1-(piperidin-4-yl)-N-((5-(pyridin-3-yl)-1H-pyrazolo[3,4-c]pyridin-3-yl)methyl)methanamine], for which the inhibition constant (Ki) came to 3200 nM.

In the case of `Cc1n[nH]c2cnc(-c3cnn(C4COC4)c3)cc12` [Example 114, 3-methyl-5-(1-(oxetan-3-yl)-1H-pyrazol-4-yl)-1H-pyrazolo[3,4-c]pyridine], the Ki is 844 nM.

The molecule `Cc1n[nH]c2cnc(-c3cncnc3)cc12` [Example 115, 3-methyl-5-(pyrimidin-5-yl)-1H-pyrazolo[3,4-c]pyridine] registered a Ki of 3500 nM.

For the molecule `Cc1n[nH]c2cnc(-c3cnccn3)cc12` [Example 118, 3-methyl-5-(pyrazin-2-yl)-1H-pyrazolo[3,4-c]pyridine], the affinity corresponds to a Ki of 620 nM.

In turn, `Cc1n[nH]c2cnc(-c3cnccc3N3CCC[C@@H](N)C3)cc12` [Example 119, (R)-1-(3-(3-methyl-1H-pyrazolo[3,4-c]pyridin-5-yl)pyridin-4-yl)piperidin-3-amine] registered a Ki of 1100 nM.

`Cc1n[nH]c2cnc(-c3cncc(N4CCC[C@H](N)C4)n3)cc12` [Example 120, (S)-1-(6-(3-methyl-1H-pyrazolo[3,4-c]pyridin-5-yl)pyrazin-2-yl)piperidin-3-amine] came in with an inhibition constant Ki of 4.78 nM.

Consider `Cc1n[nH]c2cnc(-c3cncc(N4CCC[C@@H](N)C4)n3)cc12` [Example 121, (R)-1-(6-(3-methyl-1H-pyrazolo[3,4-c]pyridin-5-yl)pyrazin-2-yl)piperidin-3-amine], for which affinity was put at a Ki of 6.91 nM.

Turning to `Cc1n[nH]c2cnc(-c3cncc(F)c3)cc12` [Example 123, 5-(5-fluoropyridin-3-yl)-3-methyl-1H-pyrazolo[3,4-c]pyridine], the inhibition constant (Ki) was found to be 737 nM.

Turning to `NC(=O)c1cccc(-c2n[nH]c3cnc(-c4cccnc4)cc23)c1` [Example 125, 3-(5-(pyridin-3-yl)-1H-pyrazolo[3,4-c]pyridin-3-yl)benzamide], the Ki is 307 nM.

In turn, `FC(F)(F)c1cccc(-c2n[nH]c3cnc(-c4cccnc4)cc23)c1` [Example 126, 5-(pyridin-3-yl)-3-(3-(trifluoromethyl)phenyl)-1H-pyrazolo[3,4-c]pyridine] showed a Ki of 15.9 nM.

Consider `Cc1n[nH]c2cnc(-c3cnn(C)c3)cc12` [Example 127, 3-methyl-5-(1-methyl-1H-pyrazol-4-yl)-1H-pyrazolo[3,4-c]pyridine], for which the inhibition constant Ki is 261 nM.

Molecule `NC1CCN(c2ccncc2-c2cc3c(-c4ccccc4F)n[nH]c3cn2)CC1` [Example 128, 1-(3-(3-(2-fluorophenyl)-1H-pyrazolo[3,4-c]pyridin-5-yl)pyridin-4-yl)piperidin-4-amine] registered a Ki of 1500 nM.

The molecule `NC[C@@H]1CCN(c2ccncc2-c2cc3c(-c4ccccc4F)n[nH]c3cn2)C1` [Example 130, (S)-(1-(3-(3-(2-fluorophenyl)-1H-pyrazolo[3,4-c]pyridin-5-yl)pyridin-4-yl)pyrrolidin-3-yl)methanamine] displayed an inhibition constant (Ki) of 1500 nM.

As to `Fc1cccc(-c2n[nH]c3cnc(-c4cccnc4)cc23)n1` [Example 131, 3-(6-fluoropyridin-2-yl)-5-(pyridin-3-yl)-1H-pyrazolo[3,4-c]pyridine], the inhibitory constant (Ki) stood at 13.1 nM.

`O=c1cccc(-c2n[nH]c3cnc(-c4cccnc4)cc23)[nH]1` [Example 132, 6-(5-(pyridin-3-yl)-1H-pyrazolo[3,4-c]pyridin-3-yl)pyridin-2(1H)-one] gave a Ki of 130 nM.

For `Cn1cc(-c2cc3c(-c4ccccc4)n[nH]c3cn2)cn1` [Example 133, 5-(1-methyl-1H-pyrazol-4-yl)-3-phenyl-1H-pyrazolo[3,4-c]pyridine], affinity was put at a Ki of 5.57 nM.

`N#CCc1n[nH]c2cnc(-c3cccnc3)cc12` [Example 134, 2-(5-(pyridin-3-yl)-1H-pyrazolo[3,4-c]pyridin-3-yl)acetonitrile]: the Ki is 826 nM.

`Cn1cc(-c2cc3c(CC#N)n[nH]c3cn2)cn1` [Example 135, 2-(5-(1-methyl-1H-pyrazol-4-yl)1H-pyrazolo[3,4-c]pyridin-3-yl)acetonitrile]: the affinity corresponds to a Ki of 387 nM.

As for `Fc1ccccc1-c1n[nH]c2cnc(-c3cn[nH]c3)cc12` [Example 136, 3-(2-fluorophenyl)-5-(1H-pyrazol-4-yl)-1H-pyrazolo[3,4-c]pyridine], the Ki is 8.69 nM.

In turn, `c1ccc(-c2n[nH]c3cnc(-c4cn[nH]c4)cc23)cc1` [Example 137, 3-phenyl-5-(1H-pyrazol-4-yl)-1H-pyrazolo[3,4-c]pyridine] came in with a Ki of 4.61 nM.

For the origin of these results see US9260425B2 (Genetech, Inc., priority 2011, dated 2016).
